We go through 29 compounds from US20250154193A1, “STEROID COMPOUND, AND PREPARATION METHOD THEREFOR AND APPLICATION THEREOF” (CHOLESGEN (SHANGHAI) CO., LTD., priority 2022, published 2025).

This experiment concerns SREBP pathway. In words: SREBP luciferase reporter gene system (SRE-luciferase assay) in Huh-7/SRE-Luc cells. It is filed as cell-based. To be noted: Homo sapiens, sterol-deficient medium, compound treatment 16 hours, luciferase/GFP ratio. The method, then:
Huh-7/SRE-Luc, a human hepatocellular carcinoma cell line, was grown in a culture medium containing DMEM, 10% fetal bovine serum, 100 units/mL penicillin, 100 µg/mL streptomycin, and 200 μg/mL G418.
The Huh-7/SRE-Luc cell line is a human hepatocellular carcinoma cell line Huh-7 stably expressing LDLR promoter-luciferase and green fluorescent protein (GFP). The LDLR promoter region contains a sterol regulatory element (SRE) that can effectively and sensitively respond to the regulation of the transcription factor SREBP. The GFP signal serves as an internal reference to indicate changes in cell number. Therefore, this cell line can be used to screen for active small molecules that regulate the SREBP signaling pathway. […] Cells were incubated in a sterol-deficient medium (5% lipoprotein-deficient serum, 2 μM Lovastatin, 10 μM mevalonate) and treated with corresponding concentrations of compounds for 16 hours. After compound treatment, the cells were lysed with lysis buffer (E397A, Promega), followed by the addition of luciferase substrate (E1500, Promega). The SRE-driven luciferase activity was measured using a BioTek Synergy HTX microplate reader (including but not limited to this type of instrument). The fluorescence intensity of enhanced green fluorescent protein (EGFP) was also measured using the BioTek microplate reader (including but not limited to this type of instrument) and used as an internal reference. The ratio of SRE-driven luciferase activity to GFP fluorescence intensity was used as an indicator of SREBP pathway activity. The test data of each test compound was analyzed using Prism software to obtain the IC50 parameter of the compound.
The inhibitory effect of the compounds of the present disclosure on the SREBP pathway was tested by the method of bioassay example 2. The concentration gradient of each compound was designed as 0.01, 0.03, 0.1, 0.3, 1.0, 3.0, and […], with DMSO as a vehicle control.
For the compound `C[C@H](CCCC(C)(C)O)[C@H]1CC[C@H]2[C@@H]3CC[C@]4(O)[C@@H](O)[C@@H](O)CC[C@]4(C)[C@H]3CC[C@]12C` (single isomer, unassigned) [compound 248, cholest-3β,4,5,25-tetraol], the half-inhibitory concentration (IC50) stood at 0.766 µM. The value for `C[C@H](CCC[C@H](O)c1ccccc1F)[C@H]1CC[C@H]2[C@@H]3CC[C@H]4[C@@H](O)[C@@H](O)CC[C@]4(C)[C@H]3CC[C@]12C` (single isomer, unassigned) [compound 280, 24-[R-(2-fluorophenyl)(hydroxy)methyl]-5α-cholan-30,40-diol or 24-[S-(2-fluorophenyl)(hydroxy)methyl]-5α-cholan-30,40-diol] was 0.118 µM; that for `COc1ccccc1[C@H](O)CCC[C@@H](C)[C@H]1CC[C@H]2[C@@H]3CC[C@H]4[C@@H](O)[C@@H](O)CC[C@]4(C)[C@H]3CC[C@]12C` (single isomer, unassigned) [compound 325, 24-[S-hydroxy(2-methoxyphenyl)methyl]-5α-cholan-3β,4β-diol or 24-[R-hydroxy(2-methoxyphenyl)methyl]-5α-cholan-3β,4β-diol] was 0.09 µM; that for `C[C@H](CCCC(C)(C)O)[C@H]1CC[C@H]2[C@@H]3CC[C@H]4C(=NO)[C@@H](O)CC[C@]4(C)[C@H]3CC[C@]12C` (stereo in doubt) [compound 273, [(1R,3aS,3bS,5aR,6E,7S,9aR,9bS,11aR)-7-hydroxy-1-[(2R)-6-hydroxy-6-methylheptan-2-yl]-9a,11a-dimethylhexadecahydro-1H-cyclopenta[1,2-a]phenanthren-6-ylidene]hydroxylamine] was 0.279 µM. The value for `C[C@H](CCCC(C)(C)O)[C@H]1CC[C@H]2[C@@H]3CCC4(O)C[C@@H](O)CC[C@]4(C)[C@H]3CC[C@]12C` (some centres unmarked) [compound 205, cholest-30,5,25-triol] was 0.817 µM; that for `C[C@H](CCCC(C)(C)O)[C@H]1CC[C@H]2[C@@H]3C[C@@H](O)[C@H]4C[C@@H](O)CC[C@]4(C)[C@H]3CC[C@]12C` [compound 206, cholest-3β,6,25-triol] was 0.464 µM; that for `C[C@H](CCCC(C)(C)O)[C@H]1CC[C@H]2[C@@H]3CC(O)C4(O)C[C@@H](O)CC[C@]4(C)[C@H]3CC[C@]12C` (stereo partly drawn) [compound 207, cholest-3β,5,6,25-tetraol] was 3.09 µM. Take `COC1C[C@H]2[C@@H]3CC[C@H]([C@H](C)CCCC(C)(C)O)[C@@]3(C)CC[C@@H]2[C@@]2(C)CC[C@H](O)CC12O` (stereo partly drawn) [compound 208, 6-methoxycholest-3β,5,25-triol]: the IC50 came to 1.93 µM. The value for `C[C@H](CCCC(C)(C)O)[C@H]1CC[C@H]2[C@@H]3C(O)C[C@H]4C[C@@H](O)CC[C@]4(C)[C@H]3CC[C@]12C` (stereo partly drawn) [compound 210, 5α-cholest-3β,7,25-triol] was 0.837 µM; that for `CCC(O)CCC[C@@H](C)[C@H]1CC[C@H]2C3CC[C@H]4C[C@@H](O)CC[C@]4(C)C3CC[C@]12C` (stereo partly drawn) [compound 211, (1R,3aS,5aS,7S,9aS,11aR)-1-[(2R)-6-hydroxyoctan-2-yl]-3a,9a,11a-trimethylhexadecahydro-1H-cyclopenta[1,2-α]phenanthren-7-ol] was 0.395 µM. The value for `C[C@H](CCCC(O)C1CC1)[C@H]1CC[C@H]2[C@@H]3CC[C@H]4C[C@@H](O)CC[C@]4(C)[C@H]3CC[C@]12C` (stereo partly drawn) [compound 217, 24-[cyclopropyl(hydroxy)methyl]-5α-cholan-3β-ol] was 0.329 µM. Turning to `C[C@H](CCCC(O)C(F)(F)F)[C@H]1CC[C@H]2[C@@H]3CC[C@H]4C[C@@H](O)CC[C@]4(C)[C@H]3CC[C@]12C` (stereo partly drawn) [compound 218, 24-(2,2,2-trifluoro-1-hydroxyethyl)-5α-cholan-3β-ol], the IC50 is 0.296 µM.

For the compound `C[C@H](CCN1CCc2ccccc2C1=O)[C@H]1CC[C@H]2[C@@H]3CC[C@H]4C[C@@H](O)CC[C@]4(C)[C@H]3CC[C@]12C` [compound 224], the concentration for half-maximal inhibition (IC50) is over 10 µM. The value for `C[C@H](CCCC(C)(C)O)[C@H]1CC[C@H]2[C@@H]3CC(=O)C4(O)C[C@@H](O)CC[C@]4(C)[C@H]3CC[C@]12C` (some centres unmarked) [compound 225, 3P,5,25-trihydroxycholest-6-one] was 0.667 µM; that for `C[C@H](CCCC(C)(C)O)[C@H]1CC[C@H]2[C@@H]3CC(O)C4(F)C[C@@H](O)CC[C@]4(C)[C@H]3CC[C@]12C` (some centres unmarked) [compound 226] was 46.6 µM.

As to `C[C@H](CCCC(C)(C)O)[C@H]1CC[C@H]2[C@@H]3CC(C#N)C4(O)C[C@@H](O)CC[C@]4(C)[C@H]3CC[C@]12C` (some centres unmarked) [compound 227], the concentration for half-maximal inhibition (IC50) was 1.33 µM. With `C[C@H](CCCC(C)(C)O)[C@H]1CC[C@H]2[C@@H]3C(O)C[C@H]4[C@@H](O)[C@@H](O)CC[C@]4(C)[C@H]3CC[C@]12C` (stereo partly drawn) [compound 231, cholest-3β,4p,7,25-tetraol], the IC50 amounted to 1.03 µM. With `C[C@H](CCCC(O)C(F)(F)F)[C@H]1CC[C@H]2[C@@H]3CC[C@H]4[C@@H](O)[C@@H](O)CC[C@]4(C)[C@H]3CC[C@]12C` (stereo partly drawn) [compound 232, 24-(2,2,2-trifluoro-1-hydroxyethyl)-5α-cholan-3β,4β-diol], the 50% inhibitory concentration (IC50) stood at 0.084 µM. Turning to `C[C@H](CCCC(O)C1CC1)[C@H]1CC[C@H]2[C@@H]3CC[C@H]4[C@@H](O)[C@@H](O)CC[C@]4(C)[C@H]3CC[C@]12C` (stereo partly drawn) [compound 233, 24-[cyclopropyl(hydroxy)methyl]-5α-cholan-3β,4β-diol], the IC50 was 0.232 µM. The value for `C[C@H](CCCC(O)c1ccccc1F)[C@H]1CC[C@H]2[C@@H]3CC[C@H]4[C@@H](O)[C@@H](O)CC[C@]4(C)[C@H]3CC[C@]12C` (some centres unmarked) [compound 234] was 0.36 µM.

Consider `C[C@H](CCCC(C)(C)O)[C@H]1CC[C@H]2[C@@H]3CC(=O)[C@H]4[C@@H](O)[C@@H](O)CC[C@]4(C)[C@H]3CC[C@]12C` [compound 235, 25-hydroxy-4β-hydroxy-3β-hydroxy-5α-cholest-6-one], for which the half-maximal inhibitory concentration (IC50) was 10.8 µM. The value for `C[C@H](CCCC(C)(C)O)[C@H]1CC[C@@]2(C)[C@@H]3C(O)C[C@H]4C(C)(C)[C@@H](O)CC[C@]4(C)[C@H]3CC[C@]12C` (stereo partly drawn) [compound 237, (1R,3aS,5aR,7S,9aR,11aR)-1-[(2R)-6-hydroxy-6-methylheptan-2-yl]-3a,6,6,9a,11a-pentamethylhexadecahydro-1H-cyclopenta[1,2-α]phenanthrene-4,7-diol] was 7.04 µM. Consider `C[C@H](CCCC(C)(C)O)[C@H]1CC[C@H]2[C@@H]3C[C@H](O)[C@H]4C[C@@H](O)CC[C@]4(C)[C@H]3CC[C@]12C` [compound 240, cholest-30,6a,25-triol], for which the IC50 was 0.67 µM.

With `CCC(O)CCC[C@@H](C)[C@H]1CC[C@H]2[C@@H]3CC[C@H]4[C@@H](O)[C@@H](O)CC[C@]4(C)[C@H]3CC[C@]12C` (stereo partly drawn) [compound 241, 24-(1-hydroxypropyl)-5α-cholan-3β,4β-diol], the IC50 came to 0.328 µM.

As to `C[C@H](CCCC(C)(C)O)[C@H]1CC[C@H]2[C@@H]3C(=O)C[C@H]4[C@@H](O)[C@@H](O)CC[C@]4(C)[C@H]3CC[C@]12C` [compound 242, 25-hydroxy-4β-hydroxy-3β-hydroxy-5α-cholest-7-one], the half-maximal inhibitory concentration (IC50) came out at 0.556 µM. The value for `C[C@H](CCCC(C)(C)O)[C@H]1CC[C@H]2[C@@H]3CC(O)[C@H]4[C@@H](O)[C@@H](O)CC[C@]4(C)[C@H]3CC[C@]12C` (stereo partly drawn) [compound 244, cholest-3β,4p,6,25-tetraol] was 3.76 µM; that for `C[C@H](CCCC1(O)CC1)[C@H]1CC[C@H]2[C@@H]3CC[C@H]4[C@@H](O)[C@@H](O)CC[C@]4(C)[C@H]3CC[C@]12C` [compound 245, (1R,3aS,5aR,6R,7S,9aR,11aR)-1-[(2R)-5-(hydroxycyclopropyl)pentan-2-yl]-9a,11a-dimethylhexadecahydro-1H-cyclopenta[1,2-a]phenanthrene-6,7-diol] was 0.192 µM; that for `C[C@H](CCCC(C)(C)O)[C@H]1CC[C@H]2[C@@H]3CC[C@H]4C(O)(C(F)(F)F)[C@@H](O)CC[C@]4(C)[C@H]3CC[C@]12C` (stereo partly drawn) [compound 246, 4-(trifluoromethyl)-5α-cholest-3β,4,25-triol] was 0.988 µM. The value for `C[C@H](CCCC(O)c1ccccc1F)[C@H]1CC[C@H]2[C@@H]3CC[C@H]4C[C@@H](O)CC[C@]4(C)[C@H]3CC[C@]12C` (stereo partly drawn) [compound 251, 24-[(2-fluorophenyl)(hydroxy)methyl]-5α-cholan-3β-ol] was 0.321 µM.
